Like-named read-outs stand apart in the source and are kept apart here.

What all share (format): biochemical
In assay [1] the target is T1, PRAK (Homo sapiens, UniProt Q8IW41).
T1 sequence (Q8IW41 1-473): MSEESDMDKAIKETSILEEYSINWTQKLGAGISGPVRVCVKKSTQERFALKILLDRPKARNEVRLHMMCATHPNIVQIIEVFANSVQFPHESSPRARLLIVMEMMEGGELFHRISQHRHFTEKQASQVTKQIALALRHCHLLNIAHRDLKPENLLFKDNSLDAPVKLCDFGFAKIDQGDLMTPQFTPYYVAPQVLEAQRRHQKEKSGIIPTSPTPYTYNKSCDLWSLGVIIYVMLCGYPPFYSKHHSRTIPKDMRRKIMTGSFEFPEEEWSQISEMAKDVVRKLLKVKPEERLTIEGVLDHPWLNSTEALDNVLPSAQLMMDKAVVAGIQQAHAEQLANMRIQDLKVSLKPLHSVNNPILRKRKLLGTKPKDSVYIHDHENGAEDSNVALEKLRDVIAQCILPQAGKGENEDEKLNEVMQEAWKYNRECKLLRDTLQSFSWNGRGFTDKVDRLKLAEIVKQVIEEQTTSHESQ
The assay is described as follows: Kinase profiling PRAK. As to conditions: for remaining activity at 100 µM: read-out: residual kinase activity, PRAK. An excerpt: (§1) Any value less that 25 is considered to be highly significant inhibition.

The target of assay [2] is T2, CHK1 (Homo sapiens, UniProt O14757).
T2 sequence (O14757 1-476): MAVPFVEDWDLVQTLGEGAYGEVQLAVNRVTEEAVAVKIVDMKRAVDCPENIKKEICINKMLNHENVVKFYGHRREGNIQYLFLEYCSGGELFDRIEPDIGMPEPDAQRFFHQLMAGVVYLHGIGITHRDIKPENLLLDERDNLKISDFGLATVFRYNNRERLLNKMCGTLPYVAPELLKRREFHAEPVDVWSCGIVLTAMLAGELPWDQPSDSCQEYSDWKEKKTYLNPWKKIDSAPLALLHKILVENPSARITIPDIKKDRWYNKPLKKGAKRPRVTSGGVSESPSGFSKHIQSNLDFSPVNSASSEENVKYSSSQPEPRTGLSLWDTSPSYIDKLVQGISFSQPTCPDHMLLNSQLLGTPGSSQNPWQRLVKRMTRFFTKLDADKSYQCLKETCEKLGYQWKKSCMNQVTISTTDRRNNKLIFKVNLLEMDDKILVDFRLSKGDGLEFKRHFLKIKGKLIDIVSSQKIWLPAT
The assay is described as follows: Kinase profiling CHK1. As to conditions: for remaining activity at 100 µM: read-out: residual kinase activity, CHK1.
Excerpt: as §1

Assay [3] deals with CDK9-Cyclin T1 (Homo sapiens, UniProt P50750). The experiment in a line: Kinase profiling CDK9-Cyclin T1. The conditions noted are these: for remaining activity at 100 µM: read-out: residual kinase activity, CDK9-Cyclin T1.
Excerpt: as §1

The target of assay [4] is SIK3 (Homo sapiens, UniProt Q9Y2K2). The experiment in a line: Kinase profiling SIK3. As to conditions: for remaining activity at 100 µM: read-out: residual kinase activity, SIK3.
Excerpt: as §1

For assay [5], the target named is T3, TSSK1 (Homo sapiens, UniProt Q9BXA7).
T3 sequence (Q9BXA7 1-367): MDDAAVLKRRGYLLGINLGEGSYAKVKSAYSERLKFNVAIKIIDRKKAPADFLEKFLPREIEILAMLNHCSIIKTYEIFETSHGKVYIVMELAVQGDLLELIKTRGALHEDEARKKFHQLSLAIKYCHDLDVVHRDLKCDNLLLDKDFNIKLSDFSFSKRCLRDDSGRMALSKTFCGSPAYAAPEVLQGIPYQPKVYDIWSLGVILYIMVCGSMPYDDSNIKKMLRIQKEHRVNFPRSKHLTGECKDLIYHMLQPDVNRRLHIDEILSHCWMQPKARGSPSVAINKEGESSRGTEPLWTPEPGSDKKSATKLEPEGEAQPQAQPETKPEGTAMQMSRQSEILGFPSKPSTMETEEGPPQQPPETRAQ
The assay is described as follows: Kinase profiling TSSK1. The conditions noted are these: for remaining activity at 100 µM: read-out: residual kinase activity, TSSK1.
Excerpt: as §1

Assay [6] deals with T4, IKKe (Homo sapiens, UniProt Q14164).
T4 sequence (Q14164 1-716): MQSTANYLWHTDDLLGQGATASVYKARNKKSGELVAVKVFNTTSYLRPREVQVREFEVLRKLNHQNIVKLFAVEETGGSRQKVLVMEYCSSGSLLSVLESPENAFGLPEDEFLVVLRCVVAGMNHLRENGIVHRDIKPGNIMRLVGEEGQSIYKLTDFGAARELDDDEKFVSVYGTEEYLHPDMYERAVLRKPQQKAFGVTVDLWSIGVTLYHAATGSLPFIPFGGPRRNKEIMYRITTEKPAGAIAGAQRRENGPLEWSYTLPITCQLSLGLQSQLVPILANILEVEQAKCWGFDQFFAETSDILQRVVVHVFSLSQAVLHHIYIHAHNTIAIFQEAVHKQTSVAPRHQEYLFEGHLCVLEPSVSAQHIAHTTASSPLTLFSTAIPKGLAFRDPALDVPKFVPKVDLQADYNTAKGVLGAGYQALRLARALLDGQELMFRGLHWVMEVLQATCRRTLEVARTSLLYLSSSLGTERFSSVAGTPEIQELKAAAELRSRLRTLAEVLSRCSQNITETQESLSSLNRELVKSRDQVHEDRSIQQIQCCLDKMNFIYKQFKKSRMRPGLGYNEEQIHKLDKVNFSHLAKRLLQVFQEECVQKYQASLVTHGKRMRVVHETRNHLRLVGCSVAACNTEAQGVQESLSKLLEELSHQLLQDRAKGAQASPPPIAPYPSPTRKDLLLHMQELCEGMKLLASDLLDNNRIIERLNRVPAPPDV
The experiment in a line: Kinase profiling IKKe. The conditions noted are these: for remaining activity at 100 µM: read-out: residual kinase activity, IKKe.
Excerpt: as §1

In assay [7] the target is OSR1 (Homo sapiens, UniProt O95747). The assay is described as follows: Kinase profiling OSR1. The conditions noted are these: for remaining activity at 100 µM: read-out: residual kinase activity, OSR1.
Excerpt: as §1

The target of assay [8] is MAP4K5 (Homo sapiens, UniProt Q9Y4K4). The assay is described as follows: Kinase profiling MAP4K5. The conditions noted are these: for remaining activity at 100 µM: read-out: residual kinase activity, MAP4K5.
Excerpt: as §1

Assay [9] addresses PDGFRA (Homo sapiens, UniProt P16234). The assay is described as follows: Kinase profiling PDGFRA. As to conditions: for remaining activity at 100 µM: read-out: residual kinase activity, PDGFRA.
Excerpt: as §1

The mark [10] stands for this setting: 100 micromolar inhibitor concentration, 100 is no change.
The mark [11] stands for this setting: 100 micromolar inhibitor, 100 = no change.

OSR1, sequence (O95747 whole entry): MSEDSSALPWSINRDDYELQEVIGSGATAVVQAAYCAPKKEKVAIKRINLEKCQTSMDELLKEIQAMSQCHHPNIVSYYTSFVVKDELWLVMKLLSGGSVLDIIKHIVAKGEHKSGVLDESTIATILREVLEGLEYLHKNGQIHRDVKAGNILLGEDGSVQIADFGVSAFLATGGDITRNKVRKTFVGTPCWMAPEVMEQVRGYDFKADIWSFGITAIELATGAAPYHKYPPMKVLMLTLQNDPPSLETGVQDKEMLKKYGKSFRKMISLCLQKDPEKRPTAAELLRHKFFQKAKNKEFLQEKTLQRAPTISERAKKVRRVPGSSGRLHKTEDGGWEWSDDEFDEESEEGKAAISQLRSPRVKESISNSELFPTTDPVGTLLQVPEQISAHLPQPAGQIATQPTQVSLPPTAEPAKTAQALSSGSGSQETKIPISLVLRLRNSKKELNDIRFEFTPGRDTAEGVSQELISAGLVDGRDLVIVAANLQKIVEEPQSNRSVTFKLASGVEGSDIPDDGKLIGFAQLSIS
PDGFRA, sequence (P16234 24-1089, species assumed): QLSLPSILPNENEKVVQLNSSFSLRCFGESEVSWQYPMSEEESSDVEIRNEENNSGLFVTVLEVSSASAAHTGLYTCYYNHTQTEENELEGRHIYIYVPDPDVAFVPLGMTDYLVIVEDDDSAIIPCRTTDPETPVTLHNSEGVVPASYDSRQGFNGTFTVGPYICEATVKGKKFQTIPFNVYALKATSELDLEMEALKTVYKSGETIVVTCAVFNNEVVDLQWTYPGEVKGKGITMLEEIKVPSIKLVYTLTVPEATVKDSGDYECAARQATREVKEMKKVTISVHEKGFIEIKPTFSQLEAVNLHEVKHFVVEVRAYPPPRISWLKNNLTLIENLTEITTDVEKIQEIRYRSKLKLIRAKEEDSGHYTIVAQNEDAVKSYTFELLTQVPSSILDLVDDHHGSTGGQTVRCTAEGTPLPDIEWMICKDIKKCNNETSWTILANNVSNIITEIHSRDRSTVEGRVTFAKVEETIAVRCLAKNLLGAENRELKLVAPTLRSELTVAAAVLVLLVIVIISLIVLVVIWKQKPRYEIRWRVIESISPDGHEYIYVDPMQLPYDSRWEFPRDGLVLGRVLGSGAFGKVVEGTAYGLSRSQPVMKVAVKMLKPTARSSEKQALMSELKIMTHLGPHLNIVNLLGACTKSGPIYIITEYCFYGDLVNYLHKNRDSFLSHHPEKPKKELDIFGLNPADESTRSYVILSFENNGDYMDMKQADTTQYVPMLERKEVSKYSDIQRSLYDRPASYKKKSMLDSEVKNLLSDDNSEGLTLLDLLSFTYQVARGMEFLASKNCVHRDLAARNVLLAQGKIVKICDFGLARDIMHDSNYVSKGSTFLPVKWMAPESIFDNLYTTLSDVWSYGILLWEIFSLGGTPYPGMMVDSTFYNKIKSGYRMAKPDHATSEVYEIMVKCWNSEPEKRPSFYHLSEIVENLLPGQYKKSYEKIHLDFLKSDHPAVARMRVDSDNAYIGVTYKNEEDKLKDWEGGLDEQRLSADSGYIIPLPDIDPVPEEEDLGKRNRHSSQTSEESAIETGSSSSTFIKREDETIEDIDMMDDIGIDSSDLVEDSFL
CDK9-Cyclin T1, sequence (P50750 whole entry): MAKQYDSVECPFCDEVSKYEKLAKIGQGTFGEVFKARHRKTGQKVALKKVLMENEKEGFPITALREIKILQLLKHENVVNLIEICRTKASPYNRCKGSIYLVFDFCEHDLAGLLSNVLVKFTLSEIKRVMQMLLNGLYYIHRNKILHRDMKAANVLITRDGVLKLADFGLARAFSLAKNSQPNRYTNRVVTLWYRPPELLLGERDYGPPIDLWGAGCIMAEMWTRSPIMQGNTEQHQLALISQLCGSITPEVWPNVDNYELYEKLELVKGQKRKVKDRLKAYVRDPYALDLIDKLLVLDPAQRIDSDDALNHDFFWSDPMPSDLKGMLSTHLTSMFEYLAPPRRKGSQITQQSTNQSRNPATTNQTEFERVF
CDK9-Cyclin T1, sequence (O60563 whole entry partner): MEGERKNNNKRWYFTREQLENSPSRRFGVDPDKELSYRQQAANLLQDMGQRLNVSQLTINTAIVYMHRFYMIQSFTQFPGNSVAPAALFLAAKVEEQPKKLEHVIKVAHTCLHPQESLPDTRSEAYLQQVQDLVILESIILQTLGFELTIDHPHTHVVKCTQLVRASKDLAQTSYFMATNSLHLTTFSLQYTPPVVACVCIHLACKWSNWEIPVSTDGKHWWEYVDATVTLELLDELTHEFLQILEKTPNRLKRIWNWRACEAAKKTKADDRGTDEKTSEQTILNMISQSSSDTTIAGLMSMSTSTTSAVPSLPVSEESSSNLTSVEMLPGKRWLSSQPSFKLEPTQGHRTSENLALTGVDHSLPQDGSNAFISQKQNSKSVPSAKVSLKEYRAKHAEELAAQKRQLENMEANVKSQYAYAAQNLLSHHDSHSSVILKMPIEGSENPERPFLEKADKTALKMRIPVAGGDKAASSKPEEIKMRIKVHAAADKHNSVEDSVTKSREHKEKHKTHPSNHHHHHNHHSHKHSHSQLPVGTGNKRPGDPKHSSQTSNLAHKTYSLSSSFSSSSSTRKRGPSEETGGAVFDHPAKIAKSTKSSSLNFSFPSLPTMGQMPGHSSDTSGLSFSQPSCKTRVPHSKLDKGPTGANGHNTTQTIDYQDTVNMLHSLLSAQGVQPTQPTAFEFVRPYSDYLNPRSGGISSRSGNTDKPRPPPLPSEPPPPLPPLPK
MAP4K5, sequence (Q9Y4K4 whole entry, species assumed): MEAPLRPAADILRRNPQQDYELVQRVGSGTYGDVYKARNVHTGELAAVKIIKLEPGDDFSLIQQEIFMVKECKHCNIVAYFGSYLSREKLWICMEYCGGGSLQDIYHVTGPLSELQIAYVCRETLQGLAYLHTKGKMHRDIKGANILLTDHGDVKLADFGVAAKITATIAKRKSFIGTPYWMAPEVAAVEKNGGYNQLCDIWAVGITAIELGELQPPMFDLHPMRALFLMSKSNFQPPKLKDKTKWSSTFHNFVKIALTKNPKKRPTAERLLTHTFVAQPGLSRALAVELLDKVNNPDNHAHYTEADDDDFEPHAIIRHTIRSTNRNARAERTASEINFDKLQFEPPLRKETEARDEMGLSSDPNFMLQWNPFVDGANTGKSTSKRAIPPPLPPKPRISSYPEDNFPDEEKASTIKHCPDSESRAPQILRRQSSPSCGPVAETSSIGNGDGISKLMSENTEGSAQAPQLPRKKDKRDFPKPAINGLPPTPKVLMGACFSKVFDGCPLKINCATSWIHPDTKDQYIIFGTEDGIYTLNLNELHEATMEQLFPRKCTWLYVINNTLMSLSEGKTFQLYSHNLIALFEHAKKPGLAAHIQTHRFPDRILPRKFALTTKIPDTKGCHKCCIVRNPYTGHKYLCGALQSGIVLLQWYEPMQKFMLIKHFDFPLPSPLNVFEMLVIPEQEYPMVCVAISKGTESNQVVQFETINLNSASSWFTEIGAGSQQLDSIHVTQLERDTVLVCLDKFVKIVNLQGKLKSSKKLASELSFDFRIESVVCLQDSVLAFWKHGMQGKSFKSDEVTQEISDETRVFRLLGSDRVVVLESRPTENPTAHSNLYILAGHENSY
SIK3, sequence (Q9Y2K2 whole entry, species assumed): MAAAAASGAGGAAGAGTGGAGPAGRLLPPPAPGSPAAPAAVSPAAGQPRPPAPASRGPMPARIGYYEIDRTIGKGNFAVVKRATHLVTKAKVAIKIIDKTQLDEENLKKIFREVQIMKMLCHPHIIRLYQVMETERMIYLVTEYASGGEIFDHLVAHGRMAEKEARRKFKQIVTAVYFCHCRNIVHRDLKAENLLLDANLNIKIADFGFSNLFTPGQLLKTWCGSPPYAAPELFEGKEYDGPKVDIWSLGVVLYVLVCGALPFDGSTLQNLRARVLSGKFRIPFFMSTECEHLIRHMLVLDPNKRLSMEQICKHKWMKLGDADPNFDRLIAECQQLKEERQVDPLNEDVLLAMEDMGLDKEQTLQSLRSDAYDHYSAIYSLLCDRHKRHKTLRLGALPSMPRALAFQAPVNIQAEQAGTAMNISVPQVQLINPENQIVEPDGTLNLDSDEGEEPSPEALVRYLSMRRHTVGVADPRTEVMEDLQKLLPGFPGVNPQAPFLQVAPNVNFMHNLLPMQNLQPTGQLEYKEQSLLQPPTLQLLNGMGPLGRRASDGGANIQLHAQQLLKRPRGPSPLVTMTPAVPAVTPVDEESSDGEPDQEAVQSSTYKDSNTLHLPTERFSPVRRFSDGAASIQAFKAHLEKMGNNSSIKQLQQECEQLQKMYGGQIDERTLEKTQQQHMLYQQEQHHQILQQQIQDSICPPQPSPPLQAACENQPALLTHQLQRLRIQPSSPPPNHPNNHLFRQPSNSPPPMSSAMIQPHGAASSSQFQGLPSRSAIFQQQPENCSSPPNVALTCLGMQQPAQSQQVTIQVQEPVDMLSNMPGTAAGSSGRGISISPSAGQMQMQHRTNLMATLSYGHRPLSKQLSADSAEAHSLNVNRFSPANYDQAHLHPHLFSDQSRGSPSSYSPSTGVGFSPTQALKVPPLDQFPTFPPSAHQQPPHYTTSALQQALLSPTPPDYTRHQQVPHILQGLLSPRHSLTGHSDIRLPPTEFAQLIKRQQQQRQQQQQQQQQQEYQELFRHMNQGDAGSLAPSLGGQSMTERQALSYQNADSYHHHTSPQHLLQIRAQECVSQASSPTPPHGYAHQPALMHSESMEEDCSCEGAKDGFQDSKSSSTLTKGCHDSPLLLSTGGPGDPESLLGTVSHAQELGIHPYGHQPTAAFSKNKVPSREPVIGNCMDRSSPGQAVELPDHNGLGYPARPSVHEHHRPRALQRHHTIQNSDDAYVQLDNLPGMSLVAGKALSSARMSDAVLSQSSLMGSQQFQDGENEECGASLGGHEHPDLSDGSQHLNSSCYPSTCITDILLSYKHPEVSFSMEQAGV

Turning to `CC(=O)Nc1nc2cc(O)ccc2s1` [Compound 01-66, N-(5-hydroxybenzo[d]thiazol-2-yl)acetamide], the remaining activity at 100 µM was 58% in assay [1]; 75% in [2]; 85% in [3]; 57% in assay [4]; 65% in assay [5]; 68% in assay [6]. The remaining activity at 100 µM in [7] was determined as 95%.
`CC(=O)Nc1nc2ccc(O)cc2s1` [Compound 01-71]: the remaining activity at 100 µM stood at 47% in assay [1] (setting [10]); 82% in [2] (setting [10]); 48% in [3] (setting [10]); 46% in assay [4] (setting [10]); 67% in [5] (setting [10]); 58% in [6] (setting [10]). Also, the remaining activity at 100 µM in [7] (setting [10]) came out at 78%.
`CC(=O)Nc1nc2ccc(C(F)(F)F)cc2s1` [Compound 01-90]: the remaining activity at 100 µM in assay [1] (setting [10]) was 111%; in [2] (setting [10]), 97%; in assay [3] (setting [10]), 26%; in assay [4] (setting [10]), 82%; in [5] (setting [10]), 90%; in assay [6] (setting [10]), 81%. The remaining activity at 100 µM in [8] (setting [10]) is 40%; in [7] (setting [10]) it was 75%; in assay [9] (setting [10]), 30%.
For `CC(=O)Nc1nc2ccc(C#N)cc2s1` [Compound 01-94], the remaining activity at 100 µM was 69% in [1] (setting [10]); 96% in assay [2] (setting [10]); 15% in assay [3] (setting [10]); 73% in assay [4] (setting [10]); 55% in assay [5] (setting [10]); 64% in [6] (setting [10]). Further, the remaining activity at 100 µM in assay [8] (setting [10]) was determined as 38%; in [7] (setting [10]), 79%; in assay [9] (setting [10]), 40%.
Turning to `CC(=O)Nc1cccc(NC(=O)c2nc3ccc(O)cc3s2)c1` [Compound 03-07, N-(3-acetamidophenyl)-6-hydroxybenzo[d]thiazole-2-carboxamide], the remaining activity at 100 µM in assay [1] (setting [11]) is 59%; in assay [2] (setting [11]), 113%; in assay [3] (setting [11]), 76%; in [4] (setting [11]), 56%; in assay [5] (setting [11]), 57%; in [6] (setting [11]), 73%. In addition, the remaining activity at 100 µM in assay [8] (setting [11]) came out at 56%; in assay [7] (setting [11]), 87%; in assay [9] (setting [11]), 44%.
Consider `O=C(Nc1nc2cc(O)ccc2s1)c1ccncc1` [Compound 03-11], for which the “residual kinase activity, PRAK” value in assay [1] (setting [10]) came out at 86. Further, the “residual kinase activity, CHK1” value in assay [2] (setting [10]) was 78. Further, in [3] (setting [10]), the “residual kinase activity, CDK9-Cyclin T1” value turned out to be 68. The “residual kinase activity, SIK3” value in [4] (setting [10]) was determined as 99. The “residual kinase activity, TSSK1” value in [5] (setting [10]) was 97. In assay [6] (setting [10]), the “residual kinase activity, IKKe” value came to 69. In addition, in [8] (setting [10]), the “residual kinase activity, MAP4K5” value was found to be 92. In addition, the “residual kinase activity, OSR1” value in assay [7] (setting [10]) is on record as 90. Besides, in assay [9] (setting [10]), the “residual kinase activity, PDGFRA” value came to 63.
As for `O=C(Nc1nc2ccc(O)cc2s1)c1ccccn1` [Compound 03-12], the “residual kinase activity, PRAK” value in [1] (setting [10]) is on record as 65. Further, the “residual kinase activity, CHK1” value in assay [2] (setting [10]) worked out at 90. The “residual kinase activity, CDK9-Cyclin T1” value in [3] (setting [10]) is 76. Also, in assay [4] (setting [10]), the “residual kinase activity, SIK3” value came to 82. In addition, the “residual kinase activity, TSSK1” value in assay [5] (setting [10]) came out at 66. Further, the “residual kinase activity, IKKe” value in assay [6] (setting [10]) is listed as 78. The “residual kinase activity, MAP4K5” value in [8] (setting [10]) is reported as 74. For the same molecule, the “residual kinase activity, OSR1” value in [7] (setting [10]) was 59. In assay [9] (setting [10]), the “residual kinase activity, PDGFRA” value is 56.
Consider `O=C(Nc1nc2cc(O)ccc2s1)c1ccccn1` [Compound 03-13], for which, in assay [1] (setting [10]), the “residual kinase activity, PRAK” value was 90. In addition, the “residual kinase activity, CHK1” value in [2] (setting [10]) was determined as 88. Besides, in assay [3] (setting [10]), the “residual kinase activity, CDK9-Cyclin T1” value is recorded as 93. Further, the “residual kinase activity, SIK3” value in assay [4] (setting [10]) is listed as 96. For the same molecule, the “residual kinase activity, TSSK1” value in assay [5] (setting [10]) is 95. In assay [6] (setting [10]), the “residual kinase activity, IKKe” value is on record as 63. Moreover, in assay [8] (setting [10]), the “residual kinase activity, MAP4K5” value is on record as 50. In assay [7] (setting [10]), the “residual kinase activity, OSR1” value was 97. Also, the “residual kinase activity, PDGFRA” value in assay [9] (setting [10]) amounted to 43.
Consider `COc1ccc2sc(NC(C)=O)nc2c1` [Compound 03-21], for which the remaining activity at 100 µM was found to be 71% in assay [1] (setting [10]); 110% in [2] (setting [10]); 90% in [3] (setting [10]); 121% in assay [4] (setting [10]); 75% in assay [5] (setting [10]); 91% in assay [6] (setting [10]). For the same molecule, the remaining activity at 100 µM in assay [8] (setting [10]) was 96%; in assay [7] (setting [10]), 119%; in assay [9] (setting [10]), 87%.
Turning to `CC(=O)Nc1nc2ccccc2s1` [Compound 03-32], in [1] (setting [10]), the “residual kinase activity, PRAK” value amounted to 78. Also, in assay [2] (setting [10]), the “residual kinase activity, CHK1” value is listed as 105. Besides, in assay [3] (setting [10]), the “residual kinase activity, CDK9-Cyclin T1” value was 45. In assay [4] (setting [10]), the “residual kinase activity, SIK3” value is given as 89. Besides, the “residual kinase activity, TSSK1” value in [5] (setting [10]) was 83. In assay [6] (setting [10]), the “residual kinase activity, IKKe” value is recorded as 109. In addition, in [8] (setting [10]), the “residual kinase activity, MAP4K5” value is 95. For the same molecule, in assay [7] (setting [10]), the “residual kinase activity, OSR1” value amounted to 112. Moreover, the “residual kinase activity, PDGFRA” value in assay [9] (setting [10]) is recorded as 78.
